For 2 molecules, melting point and EC50 results are on record in patent publication US10913751B2, “1,3-diazo-4-oxa-[3.3.1]-bicyclic derivatives, process for their manufacture and their use as a medicament, in particular for treating diabetes” (UNIVERSITA' DI PISA, priority 2017, dated 2021).

One may read the melting point as the temperature of the solid-liquid transition.

One series relates to GLP-1 receptor. Nature of the series: ELISA assay of secreted GLP-1 forms (mSTC-1 GLP-1 sec CRC). It counts as cell-based. The conditions noted are these: mSTC-1 cells, GLP-1 secretion, concentration-response curve, ELISA readout, FIG. 1; read-out: action as a GLP-1 receptor agonist (mSTC-1 GLP-1 sec CRC). On the procedure: The biological activity of the synthesised compounds was measured with an ELISA assay.
The biological activity of the compound (5S*,9R*)-9-phenyl-3-phenylacetyl-4-oxa-1,3-diazabicyclo[3.3.1]non-6-ene (Ib) as a GLP-1 receptor agonist was measured via an ELISA assay specifically modified in order to identify the forms of GLP-1 secreted.
In general terms: An ELISA detects its analyte on a solid surface through an enzyme-linked reagent.

`CC[C@@H]1[C@@H]2C=CCN1CN(C(=O)Cc1ccccc1)O2` (relative stereo) [If, (5S*,9R*)-9-ethyl-3-phenylacetyl-4-oxa-1,3-diazabicyclo[3.3.1]non-6-ene] yielded a melting point of 68 to 70 °C. In the case of `O=C(Cc1ccccc1)N1CN2CC=C[C@H](O1)[C@H]2c1ccccc1` (relative stereo) [Ib, (5S*,9R*)-9-phenyl-3-phenylacetyl-4-oxa-1,3-diazabicyclo[3.3.1]non-6-ene], the melting point was in the range of 156 to 159 °C. Moreover, the EC50 with GLP-1 receptor stood at 11 µM.
